From patent publication US4844894A, “Method of inhibiting the onset of septicemia and endotoxemia” (priority 1986, dated 1989)

What was measured:
[1] = test system: E. coli 055B5; assay: Septic endotoxemia: challenge with 5 LD50's of live E. coli 055B5 in mice; type: in vivo; conditions: 50 ug MPL ip on days 0 and 1; challenge on day 2
Description: (§1) Injection of mice ip with live E. coli provides a good model of gram-negative sepsis and associated endotoxemia, since E. coli readily sheds endotoxin. In this model, a known quantity of live E. coli are injected, and the survivors are counted for an appropriate number of days. The effectiveness of a treatment is evidenced by an increase in the survivorship for a treated group.
In the experiment, 10 mice were given ip injections of 50 ug MPL on days 0 and 1. They therefore received a total of 100 ug MPL. The control group received only saline. All mice were challenged on day 2 with 5 LD50 's of E. coli 055B5 organisms, also injected ip. All control animals died, whereas all treated animals (10/10) survived.

[2] = test system: E. coli 055B5; assay: Septic endotoxemia: challenge with 30 LD50's of E. coli 055B5 in mice; type: in vivo; conditions: 25, 25 and 50 ug MPL ip on days 0, 1 and 2; challenge on day 2
Description: as §1
In a manner similar to that employed in Example 3, 10 mice were given ip injections on days 0, 1 and 2 of 25, 25 and 50 ug MPL, respectively, corresponding to a total of 100 ug MPL for each mouse. Mice in the control group received only saline. On day 2, all mice received a challenge consisting of 30 LD50 's of E. coli 055B5. This corresponds to an overwhelming challenge dose. No mice in the control group survived, while 50% animals (5/10) in the treatment group survived.

[3] = test system: chick embryos; assay: Chick embryo 50% lethal dose assay (CELD50); type: in vivo
Description: A sensitive measure of endotoxin toxicity is the chick embryo 50% lethal dose assay (CELD50). In this test, chick embryos at 10 days of age are injected with varying doses of the material to be tested. […] Using the chick embryo test, a comparison was made of the toxicity of radiation-detoxified endotoxin with the parent endotoxin as well as with MPL.

[4] = test system: septicemia; assay: Nonspecific resistance to septicemia induced in mice by cecal ligation and puncture; type: in vivo, NMRI mice; conditions: 1 μg, ip, 24 hr prior surgery
Description: 14 NMRI mice were pretreated with one microgram of MPL administered by intraperitoneal injection. 24 hours later each of the mice underwent surgery wherein the cecum of each mouse was ligated and punctured to internally expose the mice to microorganisms capable of instigating the onset of septicemia. […] A second group of mice were subjected to surgery in precisely the same way without pretreatment with MPL.

[5] = test system: rabbits; conditions: Table B, refs (1), (3); cited from earlier work
[6] = relative to parent endotoxin; cited from earlier work
[7] = test system: endotoxin (E. coli 0111:B 4); assay: Non-septic endotoxemia: endotoxin (E. coli 0111:B4) challenge ip in mice; type: in vivo; conditions: 100 ug MPL ip day 0
Description: (§2) A model for non-septic endotoxemia is to inject mice intraperitoneally (ip) with endotoxin. […] Depending on the dose, death may occur within about 72 hours. The LD50 can be determined by injecting groups of mice with different doses of endotoxin, and noting the number of survivors in each group. The protective effect of a given treatment is evidenced by an increase in the LD50 of the endotoxin challenge.
(§3) In this embodiment, mice were injected ip on day 0 with either 100 ug MPL in 0.25 ml saline (treatment group) or else saline alone (control group). On day 3, mice in both groups received an ip injection containing one of several different doses of endotoxin (E. coli 0111:B 4). There were 8 mice at each endotoxin dose level. The doses for the control group were […] endotoxin. The doses for treatment group were 0.75, 1.00, 1.25, 1.50, 2.0, and 2.5 mg endotoxin. […] The LD50 for each group was calculated using the method of Reed and Meuench (ibid.). […] Since only 2 mice dies at the highest endotoxin dose in the treatment group, the LD50 the LD50 could not be calculated for this group. It is evident, however, that it would be well above 2.5 mg, probably around 5-6 mg. This would correspond to at least a 4 to 5 fold increase in the LD50 following treatment with MPL.

[8] = test system: rabbits; conditions: Table B, ref (2); cited from earlier work
[9] = test system: endotoxin from E. coli K235; assay: Non-septic endotoxemia: endotoxin from E. coli K235 challenge ip in mice; type: in vivo; conditions: pre-treated with 100 ug MPL
Description: as §2, §3
In another experiment the LD50 's for both the control and the treatment groups were successfully determined. The experimental design was essentially the same as that described above except that the endotoxin used was obtained from E. coli K235.

[10] = Phosphorous content; type: physicochemical; conditions: Percent by weight
[11] = test system: rabbits; conditions: Table B, refs (1), (2); cited from earlier work
[12] = 120 hrs after induction of septicemia

Q: Which treated animals survived [1] does the source give for CCCCCCCCCCCCCC(=O)OC(CCCCCCCCCCC)CC(=O)OC1C(NC(=O)CC(CCCCCCCCCCC)OC(=O)CCCCCCCCCCC)C(OCC2OC(O)C(NC(=O)CC(O)CCCCCCCCCCC)C(OC(=O)CC(O)CCCCCCCCCCC)C2O)OC(CO)C1OP(=O)(O)O (stereo not shown) [MPL, Monophosphoryl Lipid A] here?
A: 10/10

Q: What about the “animals survived in treatment group” value [2] of the same molecule?
A: 5/10

Q: What about the “survival, % of animals in treatment group” value [2] of the same molecule?
A: 50%

Q: What about the “eggs killed in CELD50 test” value ([3]; at any dose, footnote to Table A) of the same molecule?
A: No eggs killed at any dose

Q: What about the CELD50 ([3]; chick embryos at 10 days of age, survivors at 24 hours) of the same molecule?
A: > 20 µg

Q: And the “toxicity in CELD50 assay, in words” value ([3]; text conclusion from Table A)?
A: essentially no toxicity

Q: And the “effect on onset of septicemia, in words” value [4]?
A: inhibits the onset of septicemia

Q: And the “% Survival” value [4, 12]?
A: 71%

Q: And the Dead/Total [4, 12]?
A: 4/14

Q: What about the “Local Shwartzman Reaction in rabbits (area of hemorrhagic lesion)” value [5] of the same molecule?
A: < 10 mm^2

Q: What about the “toxicity in all of the Table B assays, in words” value [6] of the same molecule?
A: only negligible toxicity

Q: What about the “mice dying at the highest endotoxin dose” value ([7]; 2.5 mg endotoxin day 3, 8 mice per dose level) of the same molecule?
A: 2 mice

Q: And the “fold increase in LD50 of endotoxin following treatment” value ([7]; endotoxin ip day 3)?
A: 4 to 5 fold

Q: What about the LD50 in rabbits [8] of the same molecule?
A: > 8,000 mcg/kg

Q: And the “LD50 of endotoxin in pre-treated mice” value [9]?
A: 1.16 mg

Q: What about the “increase (factor) in LD50 of endotoxin” value [9] of the same molecule?
A: ~5 factor

Q: What about the symptoms of endotoxemia [9] of the same molecule?
A: did not show any of the usual symptoms of endotoxemia

Q: And the “Phosphorous Content” value [10]?
A: 1.8%

Q: And the “Pyrogenicity in rabbits (difference between basic and maximal body temperature)” value [11]?
A: 0 °C
